Structures can show the parent of a compound that is named as a salt. Where two headings read alike, the source gives them in different places.

Data set [1] has as its target T1, human FSH receptor (Homo sapiens, UniProt P23945).
T1 construct: host or cells: CHO-K1 (CHO FSH-R 6CRE-Luc, 1D7 cells)
T1 sequence (P23945 18-695): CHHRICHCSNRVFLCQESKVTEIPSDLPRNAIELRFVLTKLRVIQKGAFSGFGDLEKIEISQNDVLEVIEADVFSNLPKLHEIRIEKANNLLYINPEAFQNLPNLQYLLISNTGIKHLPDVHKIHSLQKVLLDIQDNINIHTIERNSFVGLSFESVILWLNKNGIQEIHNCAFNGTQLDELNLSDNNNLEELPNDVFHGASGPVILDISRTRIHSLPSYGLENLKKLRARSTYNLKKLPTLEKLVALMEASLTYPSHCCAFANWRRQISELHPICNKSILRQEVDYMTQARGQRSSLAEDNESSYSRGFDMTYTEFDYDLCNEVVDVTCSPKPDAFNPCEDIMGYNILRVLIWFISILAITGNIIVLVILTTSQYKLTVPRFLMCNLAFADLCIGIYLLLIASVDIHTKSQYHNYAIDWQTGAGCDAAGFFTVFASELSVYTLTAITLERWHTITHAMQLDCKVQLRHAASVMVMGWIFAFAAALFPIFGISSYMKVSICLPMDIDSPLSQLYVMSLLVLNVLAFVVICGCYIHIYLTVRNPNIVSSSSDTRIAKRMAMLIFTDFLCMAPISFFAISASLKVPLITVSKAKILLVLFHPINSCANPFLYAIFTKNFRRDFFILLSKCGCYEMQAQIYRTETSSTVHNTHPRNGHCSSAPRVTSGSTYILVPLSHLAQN
The experiment in a line: FSH receptor-dependent CRE-luciferase reporter gene assay (CHO FSH-R 6CRE-Luc cells). The following applies: for inhibition at 30 µM: test concentration in μM in parentheses (30 μM), % inhibition of the response to the EC50 of FSH. Type of data set: cell-based. The source says:
Follicle-Stimulating Hormone Receptor-Dependent CRE-Luciferase Reporter Gene Assay for the Identification of Follicle-Stimulating Hormone (FSH) Antagonists
This procedure was used to identify and determine the relative potencies of human FSH receptor antagonists using a Chinese hamster ovarian cell line that stably produces the human FSH receptor and a luciferase reporter gene regulated by cAMP response elements.
The compounds were subsequently diluted in DMSO to working dilutions of 1 and 20 or 30 mM for 2-dose testing format and 1 μM-10 mM for dose-response format. The DMSO dilutions were diluted 500-fold in sterile growth medium [D-MEM/F-12 (GIBCO/BRL; Grand Island N.Y.) containing 15 mM HEPES, 2 mM 1-glutamine, pyridoxine hydrochloride, phenol red and 5% FetalClone II (HyClone Laboratories, Inc; Logan, Utah), 0.2% DMSO, 100 units penicillin G/ml, and 100 μg streptomycin sulfate/ml (GIBCO/BRL)]. The concentration of the vehicle in each of the compound dilutions was the same. • Positive Controls: Purified human FSH (>98%) was purchased from Cortex Biochem, Inc. (San Leandro, Calif.) and WAY-162002 (an FSH-R thiazolidinone antagonist) was obtained from the Wyeth Research compound repository. Preparation of Cells
The CHO FSH-R 6CRE-Luc cells (1D7 cells) were obtained from Affymax (Palo Alto, Calif.). These Chinese hamster ovary cells (CHO—K1) were genetically engineered to stably express the recombinant human FSH receptor gene and a luciferase reporter gene under the regulation of 6 copies of a cAMP response element. The cells were plated one day prior to treatment into 96-well white opaque plates at a density of 50,000 cells/100 μl/well in growth medium. On the day of treatment, the growth medium was removed from the wells by aspiration and 50 μl of fresh growth medium was added to each well. The cells were incubated at 37° C. in a humidified incubator with 5% CO2/95% air.
The treated cells were incubated for 4 hours at 37° C. in a humidified incubator with 5% CO2/95% air. At the end of-the incubation period, luciferase activity was measured by chemiluminescence using a commercially available kit (LucScreen, Tropix, Inc., Bedford, Mass.) according to the manufacturer's specifications, except that Buffer 1 and Buffer 2 were mixed together in equal proportion prior to the addition of 100 μl of the combined reagents to each well. Chemiluminescence was detected using a luminometer (EG & G Berthold Microlumat LB 96 P, Wallac, Gaithersburg, Md.) with chemiluminescence measured for 1 sec/well. Background luminescence was measured for each well prior to the addition of the LucScreen reagent.
In the 96-well 2-dose format, each compound was tested in duplicate at each dose. […] One plate was used to test a maximum of 22 compounds.
The EC50 of purified human FSH alone was tested in triplicate with each test compound. The doses chosen to test each compound were extrapolated from the initial 2-dose screening process. Along with the test compounds, purified human FSH was also tested in a dose response (0.03, 0.1, 0.3, 1, 3, 10, and 30 ng/ml) for a positive control and quality control. One plate was used for 3 test compounds and the FSH positive control.
Luciferase activity is expressed as relative light units/sec/well. Luciferase activity in antagonist was compared to the appropriate negative and positive controls. For 2-dose testing, results are reported as luciferase activity and are expressed as % inhibition of the response obtained from the EC50 of FSH. For dose-response testing, results are reported as IC50 values. Data were analyzed statistically by one-way analysis of variance with appropriate weighting and transformation and relevant paired test as determined by Biometrics (Wyeth Research, Princeton, N.J.). IC50 values were calculated using the Stat/Excel program developed by Biometrics with appropriate weighting and transformation.

The mark [2] stands for this setting: dose-response in presence of EC50 of purified human FSH, read-out: CRE IC50.

As a reminder, the IC50 is the concentration that inhibits the measured activity by half. With `NC(=O)c1cccc(N2C(=O)[C@@H](CC(=O)NCCc3c[nH]c4ccccc34)S[C@H]2c2ccc(C#Cc3ccccc3)s2)c1` (relative stereo) [3-[(2S*,5R*)-5-{[2-(1H-Indol-3-yl)-ethylcarbamoyl]-methyl}-4-oxo-2-(5-phenylethynyl-thiophen-2-yl)-thiazolidin-3-yl]-benzamide, reference compound], the IC50 in data set [1] (positive control, in the presence of EC50 of purified human FSH, read-out: IC50 in CRE-luciferase assay) was found to be 2 µM. A word on the inhibition: it is how much of the control response was suppressed. With `Cc1ccccc1-c1ccc(C(=O)N2Cc3ccc(C(=O)CNc4cccnc4)n3Cc3ccccc32)cc1C` [Example 1, 1-{10-[(2,2′-Dimethyl-1,1′-biphenyl-4-yl)carbonyl]-10,11-dihydro-5H-pyrrolo[2,1-c][1,4]benzodiazepin-3-yl}-2-(pyridin-3-ylamino)ethanone formic acid salt], the inhibition at 30 µM in data set [1] amounted to 4%. For the compound `O=C(CCc1cccnc1)c1ccc2n1Cc1ccccc1N(C(=O)c1ccc(-c3ccccc3)cc1)C2` [Example 2, 1-[10-(1,1′-Biphenyl-4-ylcarbonyl)-10,11-dihydro-5H-pyrrolo[2,1-c][1,4]benzodiazepin-3-yl]-3-pyridin-3-ylpropan-1-one formic acid salt], the IC50 in data set [1] (setting [2]) was 10.7 µM. The term melting point denotes the temperature of the solid-liquid transition. `Cc1cc(Cl)ccc1OCC(=O)N1Cc2ccc(C(=O)c3ccc(Cl)cc3)n2Cc2ccccc21` [Example 4, {10-[(4-Chloro-2-methylphenoxy)acetyl]-10,11-dihydro-5H-pyrrolo[2,1-c][1,4]benzodiazepin-3-yl}(4-chlorophenyl)methanone]: the melting point is 175 to 176 °C. In addition, the inhibition at 30 µM in data set [1] is 22%. `Cc1cc(Cl)ccc1OCC(=O)N1Cc2ccc(C(=O)CCc3ccccc3)n2Cc2ccccc21` [Example 5, 1-{10-[(4-Chloro-2-methylphenoxy)acetyl]-10,11-dihydro-5H-pyrrolo[2,1-c][1,4]benzodiazepin-3-yl}-3-phenylpropan-1-one] gave a melting point of 130 to 134 °C. Also, the IC50 in data set [1] (setting [2]) was more than 30 µM. In turn, `Cc1cc(Cl)ccc1OCC(=O)N1Cc2ccc(C(=O)c3cccc4ccccc34)n2Cc2ccccc21` [Example 6, {10-[(4-Chloro-2-methylphenoxy)acetyl]-10,11-dihydro-5H-pyrrolo[2,1-c][1,4]benzodiazepin-3-yl}(1-naphthyl)methanone] gave a melting point of 130 to 134 °C. The IC50 in data set [1] (setting [2]) was more than 30 µM. `Cc1cc(Cl)ccc1OCC(=O)N1Cc2ccc(C(=O)c3ccc(-c4ccccc4)cc3)n2Cc2ccccc21` [Example 7, 1,1′-Biphenyl-4-yl{10-[(4-chloro-2-methylphenoxy)acetyl]-10,11-dihydro-5H-pyrrolo[2,1-c][1,4]benzodiazepin-3-yl}methanone] had a melting point of 102 to 105 °C. The IC50 in data set [1] (setting [2]) was more than 30 µM. As for `Cc1cc(Cl)ccc1OCC(=O)N1Cc2ccc(C(=O)c3ccc(C(C)(C)C)cc3)n2Cc2ccccc21` [Example 8, (4-Tert-butylphenyl){10-[(4-chloro-2-methylphenoxy)acetyl]-10,11-dihydro-5H-pyrrolo[2,1-c][1,4]benzodiazepin-3-yl}methanone], the melting point came to 168 °C. In data set [1] (setting [2]), the IC50 was more than 30 µM. As for `Cc1cc(Cl)ccc1OCC(=O)N1Cc2ccc(C(=O)c3ccccc3-c3ccccc3)n2Cc2ccccc21` [Example 9, 1,1′-Biphenyl-2-yl{10-[(4-chloro-2-methylphenoxy)acetyl]-10,11-dihydro-5H-pyrrolo[2,1-c][1,4]benzodiazepin-3-yl}methanone], in data set [1] (setting [2]), the IC50 is more than 30 µM. Consider `O=C(c1ccc(Cl)cc1)c1ccc2n1Cc1ccccc1N(C(=O)COc1ccc(Cl)cc1)C2` [Example 10, {10-[(4-Chlorophenoxy)acetyl]-10,11-dihydro-5H-pyrrolo[2,1-c][1,4]benzodiazepin-3-yl}(4-chlorophenyl)methanone], for which the melting point came to 195 °C. Also, the IC50 in data set [1] (setting [2]) was more than 30 µM. As to `O=C(CCc1ccccc1)c1ccc2n1Cc1ccccc1N(C(=O)COc1ccc(Cl)cc1)C2` [Example 11, 1-{10-[(4-Chlorophenoxy)acetyl]-10,11-dihydro-5H-pyrrolo[2,1-c][1,4]benzodiazepin-3-yl}-3-phenylpropan-1-one], the melting point was in the range of 126 to 128 °C. Also, the inhibition at 30 µM in data set [1] is 8%.

Compound `CC(C)(C)c1ccc(C(=O)c2ccc3n2Cc2ccccc2N(C(=O)COc2ccc(Cl)cc2)C3)cc1` [Example 12, (4-tert-Butylphenyl){10-[(4-chlorophenoxy)acetyl]-10,11-dihydro-5H-pyrrolo[2,1-c][1,4]benzodiazepin-3-yl}methanone] showed a melting point of 171 °C. In addition, in data set [1] (setting [2]), the IC50 was more than 30 µM. In turn, `O=C(c1ccc(-c2ccccc2)cc1)c1ccc2n1Cc1ccccc1N(C(=O)COc1ccc(Cl)cc1)C2` [Example 13, 1,1′-Biphenyl-4-yl{10-[(4-chlorophenoxy)acetyl]-10,11-dihydro-5H-pyrrolo[2,1-c][1,4]benzodiazepin-3-yl}methanone] displayed a melting point of 155 to 157 °C. Further, in data set [1], the inhibition at 30 µM amounted to 14%.

Consider `O=C(c1ccccc1-c1ccccc1)c1ccc2n1Cc1ccccc1N(C(=O)COc1ccc(Cl)cc1)C2` [Example 14, 1,1′-Biphenyl-2-yl{10-[(4-chlorophenoxy)acetyl]-10,11-dihydro-5H-pyrrolo[2,1-c][1,4]benzodiazepin-3-yl}methanone], for which the IC50 in data set [1] (setting [2]) was more than 30 µM. `Cc1ccccc1-c1ccc(C(=O)N2Cc3ccc(C(=O)CCc4cccnc4)n3Cc3ccccc32)cc1` [Example 15, 1-{10-[(2′-Methyl-1,1′-biphenyl-4-yl)carbonyl]-10,11-dihydro-5H-pyrrolo[2,1-c][1,4]benzodiazepin-3-yl}-3-pyridin-3-ylpropan-1-one] displayed a melting point of 135 to 136 °C. The IC50 in data set [1] (setting [2]) turned out to be 12.1 µM.

These data come from patent US20060258644A1, “Pyrrolobenzodiazepines and heteroaryl, aryl and cycloalkylamino ketone derivatives as follicle stimulating hormone receptor (FSH-R) antagonists” (Wyeth, priority 2005, published 2006).
